From US11753407B2, “Compounds for treating spinal muscular atrophy” (PTC Therapeutics, Inc., priority 2012, dated 2023) come the findings set out here.

Broadly, the melting point is the temperature of the solid-liquid transition.

The subject of data set [1] is SMN2 minigene mRNA (SMN2-A minigene) in HEK293H cells. Put plainly: SMN2 minigene mRNA splicing RT-qPCR assay in cultured cells. The conditions noted are these: Homo sapiens, HEK293-H; concentration increasing full length SMN2 mRNA 1.5-fold relative to vehicle-treated cells; HEK293H cells with SMN2-A minigene, 24 hours, 7-point concentration data; read-out: EC1.5x for production of full length SMN2 mRNA. The data set is classed as cell-based, human. The method in brief: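 Stable SMN2-A minigene HEK293H; cpd 7-pt 3.16-fold series, 200× in DMSO, 24 h, 37 °C, n=2. Lysates → multiplex RT-qPCR (minigene FL + GAPDH), efficiency-corrected ΔΔCt vs vehicle. EC1.5× = 1.5-fold FL mRNA gain.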
On the technique in general: Real-time PCR tracks product formation cycle by cycle.

The test system of data set [2] is Smn protein in SMA patient fibroblast cells (GM03813). Put plainly: Smn protein assay in cultured cells (SMN HTRF). The data set is classed as cell-based, human. The conditions noted are these: SMA patient fibroblast cells, 48 hours; for EC1.5x for Smn protein expression: 7-point concentration curve, SMN HTRF, concentration producing 1.5 times Smn protein vs DMSO vehicle control; for maximum fold (Fold) increase of Smn protein: 7-point concentration data, fold relative to vehicle control. A digest of the protocol: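 Fibroblasts, SMA patient; 5,000 cells/well; 7-pt curve, 3.16-fold serial dilution; 48 h, 37 °C, 5% CO2; RIPA lysis 1 h RT; anti-SMN d2 + kryptate overnight RT; HTRF 665/620 nm; fold vs DMSO; EC1.5×, max fold.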
A general note: TR-FRET usually uses a lanthanide donor and a delayed reading to cut background.

In turn, `Cc1cn2cc(-c3cc(=O)n4cc(N5CCNCC5)ccc4n3)cc(Cl)c2n1` [Compound 287, 2-(8-chloro-2-methylimidazo[1,2-a]pyridin-6-yl)-7-(piperazin-1-yl)-4H-pyrido[1,2-a]pyrimidin-4-one] registered a melting point of 245 to 251 °C. Moreover, in data set [1], the EC (1.5-fold increase) is less than 0.1 µM. For the same molecule, in data set [2], the “EC1.5x for Smn protein expression” value is “**** (an EC1.5x≤0.3 μM is indicated by four stars (****))” and the “maximum fold (Fold) increase of Smn protein” value (from here on “maximum fold (Fold) increase”) is “***** (a fold increase >1.65 is indicated by five stars (*****))”.

`Cc1cn2cc(-c3cc(=O)n4cc(N5C[C@@H](C)N[C@@H](C)C5)ccc4n3)cc(Cl)c2n1` [Compound 288, 2-(8-chloro-2-methylimidazo[1,2-a]pyridin-6-yl)-7-[(3R,5S)-3,5-dimethylpiperazin-1-yl]-4H-pyrido[1,2-a]pyrimidin-4-one]: the melting point was 289 to 295 °C. The EC (1.5-fold increase) in data set [1] was less than 0.1 µM. Further, in data set [2], the “EC1.5x for Smn protein expression” value was “**** (an EC1.5x≤0.3 μM is indicated by four stars (****))” and the “maximum fold (Fold) increase” value was “***** (a fold increase >1.65 is indicated by five stars (*****))”.

`Cc1cn2cc(-c3cc(=O)n4cc(N5CCCN(C)CC5)ccc4n3)cc(Cl)c2n1` [Compound 289, 2-(8-chloro-2-methylimidazo[1,2-a]pyridin-6-yl)-7-(4-methyl-1,4-diazepan-1-yl)-4H-pyrido[1,2-a]pyrimidin-4-one]: the melting point lay in the range of 239 to 244 °C. For the same molecule, the EC (1.5-fold increase) in data set [1] was less than 0.1 µM. Moreover, in data set [2], the “EC1.5x for Smn protein expression” value is on record as “**** (an EC1.5x≤0.3 μM is indicated by four stars (****))”; the “maximum fold (Fold) increase” value was “**** (a fold increase between >1.5 and ≤1.65 is indicated by four stars (****))”.

In turn, `Cc1cn2cc(-c3cc(=O)n4cc(N5CCN[C@H](C)C5)ccc4n3)cc(Cl)c2n1` [Compound 290, 2-(8-chloro-2-methylimidazo[1,2-a]pyridin-6-yl)-7-[(3R)-3-methylpiperazin-1-yl]-4H-pyrido[1,2-a]pyrimidin-4-one] came in with a melting point of 236 to 239 °C. In data set [1], the EC (1.5-fold increase) is less than 0.1 µM. In data set [2], the “EC1.5x for Smn protein expression” value is “**** (an EC1.5x≤0.3 μM is indicated by four stars (****))” and the “maximum fold (Fold) increase” value is given as “***** (a fold increase >1.65 is indicated by five stars (*****))”.

`Cc1cn2cc(-c3cc(=O)n4cc(N5CCN[C@@H](C)C5)ccc4n3)cc(Cl)c2n1` [Compound 291, 2-(8-chloro-2-methylimidazo[1,2-a]pyridin-6-yl)-7-[(3S)-3-methylpiperazin-1-yl]-4H-pyrido[1,2-a]pyrimidin-4-one]: the melting point fell in the range of 236 to 239 °C. Further, in data set [1], the EC (1.5-fold increase) is less than 0.1 µM. Moreover, in data set [2], the “EC1.5x for Smn protein expression” value is reported as “**** (an EC1.5x≤0.3 μM is indicated by four stars (****))” and the “maximum fold (Fold) increase” value is “***** (a fold increase >1.65 is indicated by five stars (*****))”.

`Cc1cn2cc(-c3cc(=O)n4cc(N5CCN6CCC[C@@H]6C5)ccc4n3)cc(Cl)c2n1` [Compound 292, 2-(8-chloro-2-methylimidazo[1,2-a]pyridin-6-yl)-7-[(8aR)-hexahydropyrrolo[1,2-a]pyrazin-2(1H)-yl]-4H-pyrido[1,2-a]pyrimidin-4-one] registered a melting point of 274 to 280 °C. Besides, the EC (1.5-fold increase) in data set [1] is less than 0.1 µM. Also, in data set [2], the “EC1.5x for Smn protein expression” value is given as “**** (an EC1.5x≤0.3 μM is indicated by four stars (****))”; the “maximum fold (Fold) increase” value is “**** (a fold increase between >1.5 and ≤1.65 is indicated by four stars (****))”.

As for `Cc1cn2cc(-c3cc(=O)n4cc(N5CCN6CCC[C@H]6C5)ccc4n3)cc(Cl)c2n1` [Compound 293, 2-(8-chloro-2-methylimidazo[1,2-a]pyridin-6-yl)-7-[(8aS)-hexahydropyrrolo[1,2-a]pyrazin-2(1H)-yl]-4H-pyrido[1,2-a]pyrimidin-4-one], the melting point is 269 to 275 °C. The EC (1.5-fold increase) in data set [1] is less than 0.1 µM. In data set [2], the “EC1.5x for Smn protein expression” value was “**** (an EC1.5x≤0.3 μM is indicated by four stars (****))” and the “maximum fold (Fold) increase” value is given as “***** (a fold increase >1.65 is indicated by five stars (*****))”.

`Cc1cn2cc(-c3cc(=O)n4cc(N5CCN(C)[C@@H](C)C5)ccc4n3)cc(F)c2n1` [Compound 295, 7-[(3S)-3,4-dimethylpiperazin-1-yl]-2-(8-fluoro-2-methylimidazo[1,2-a]pyridin-6-yl)-4H-pyrido[1,2-a]pyrimidin-4-one]: the melting point is 269 to 275 °C. Besides, the EC (1.5-fold increase) in data set [1] is less than 0.1 µM. Further, in data set [2], the “EC1.5x for Smn protein expression” value is reported as “**** (an EC1.5x≤0.3 μM is indicated by four stars (****))”; the “maximum fold (Fold) increase” value is “**** (a fold increase between >1.5 and ≤1.65 is indicated by four stars (****))”.

Molecule `Cc1cn2cc(-c3cc(=O)n4cc(N5CCN(C)[C@H](C)C5)ccc4n3)cc(F)c2n1` [Compound 296, 7-[(3R)-3,4-dimethylpiperazin-1-yl]-2-(8-fluoro-2-methylimidazo[1,2-a]pyridin-6-yl)-4H-pyrido[1,2-a]pyrimidin-4-one] displayed a melting point of 279 to 282 °C. The EC (1.5-fold increase) in data set [1] was less than 0.1 µM. In addition, in data set [2], the “EC1.5x for Smn protein expression” value is “**** (an EC1.5x≤0.3 μM is indicated by four stars (****))” and the “maximum fold (Fold) increase” value is listed as “***** (a fold increase >1.65 is indicated by five stars (*****))”.

On to `Cc1cn2cc(-c3cc(=O)n4cc(N5CCC(N(C)C)CC5)ccc4n3)cc(F)c2n1` [Compound 297, 7-[4-(dimethylamino)piperidin-1-yl]-2-(8-fluoro-2-methylimidazo[1,2-a]pyridin-6-yl)-4H-pyrido[1,2-a]pyrimidin-4-one], for which the melting point fell in the range of 250 to 257 °C. The EC (1.5-fold increase) in data set [1] is less than 0.1 µM. In data set [2], the “EC1.5x for Smn protein expression” value is “**** (an EC1.5x≤0.3 μM is indicated by four stars (****))” and the “maximum fold (Fold) increase” value is reported as “***** (a fold increase >1.65 is indicated by five stars (*****))”.

The molecule `COc1ccc(-c2ccc3nc(N4CCC(N(C)C)CC4)cc(=O)n3c2)cc1F` [Compound 298, 2-[4-(dimethylamino)piperidin-1-yl]-7-(3-fluoro-4-methoxyphenyl)-4H-pyrido[1,2-a]pyrimidin-4-one] gave a melting point of 157 to 160 °C. In addition, the EC (1.5-fold increase) in data set [1] fell in the range of 0.3 to 1 µM. Also, the “maximum fold (Fold) increase” value in data set [2] was “*** (a fold increase between >1.35 and ≤1.5 is indicated by three stars (***))”.

As to `Cc1nc2c(F)cc(-c3cc(=O)n4cc(C5=CCNCC5)ccc4n3)cc2o1` [Compound 299, 2-(4-fluoro-2-methyl-1,3-benzoxazol-6-yl)-7-(1,2,3,6-tetrahydropyridin-4-yl)-4H-pyrido[1,2-a]pyrimidin-4-one], the melting point was in the range of 177 to 180 °C. Further, the EC (1.5-fold increase) in data set [1] was less than 0.1 µM. In data set [2], the “EC1.5x for Smn protein expression” value is listed as “**** (an EC1.5x≤0.3 μM is indicated by four stars (****))” and the “maximum fold (Fold) increase” value is “***** (a fold increase >1.65 is indicated by five stars (*****))”.
